Numbers after ± are expanded uncertainties.
Legend:
[1] = xn = mol fraction of the nth substance listed; conditions: 100 kPa, Liquid; for speed of sound: Frequency=2 MHz, Linear variable-path acoustic interferometer; for mass density: Vibrating tube method
[2] = 100 kPa, Liquid; for speed of sound: Frequency=2 MHz, Linear variable-path acoustic interferometer; for mass density: Vibrating tube method

Row | Structure (SMILES) | speed of sound ([2]; 298.15 K) [m/s] | mass density ([2]; 298.15 K) [kg/m3] | mass density ([2]; 303.15 K) [kg/m3] | speed of sound ([2]; 308.15 K) [m/s] | mass density ([2]; 308.15 K) [kg/m3] | mass density ([2]; 313.15 K) [kg/m3] | mass density ([2]; 318.15 K) [kg/m3] | also measured
1 | OCc1ccccc1 [benzenemethanol] + CCOCCO | – | – | – | – | – | – | – | speed of sound ([1]; 298.15 K, x1 = 1): 1534.5 ± 9.3 m/s; mass density ([1]; 298.15 K, x1 = 1): 1041.05 ± 4 kg/m3; mass density ([1]; 303.15 K, x1 = 1): 1037.15 ± 4 kg/m3; speed of sound ([1]; 308.15 K, x1 = 1): 1496 ± 9.1 m/s; mass density ([1]; 308.15 K, x1 = 1): 1033.32 ± 4 kg/m3; mass density ([1]; 313.15 K, x1 = 1): 1029.46 ± 4 kg/m3; mass density ([1]; 318.15 K, x1 = 1): 1025.59 ± 4 kg/m3
2 | COCCO [2-methoxyethan-1-ol] | 1341.6 ± 8.2 | 960.29 ± 4 | 955.84 ± 4 | 1302 ± 7.9 | 951.16 ± 4 | 946.49 ± 4 | 941.89 ± 4 | –
3 | COCCO [2-methoxyethan-1-ol] + OCc1ccccc1 | – | – | – | – | – | – | – | speed of sound ([1]; 298.15 K, x2 = 0): 1341.6 ± 8.2 m/s; mass density ([1]; 298.15 K, x2 = 0): 960.29 ± 4 kg/m3; mass density ([1]; 303.15 K, x2 = 0): 955.84 ± 4 kg/m3; speed of sound ([1]; 308.15 K, x2 = 0): 1302 ± 7.9 m/s; mass density ([1]; 308.15 K, x2 = 0): 951.16 ± 4 kg/m3; mass density ([1]; 313.15 K, x2 = 0): 946.49 ± 4 kg/m3; mass density ([1]; 318.15 K, x2 = 0): 941.89 ± 4 kg/m3
4 | CCOCCO [2-ethoxyethan-1-ol] | 1301.4 ± 8 | 925.36 ± 4 | 920.72 ± 4 | 1274.8 ± 7.9 | 916.11 ± 4 | 911.47 ± 4 | 906.9 ± 4 | –
5 | CCCCOCCO [2-butoxyethan-1-ol] | 1305 ± 8 | 896.46 ± 4 | 892.22 ± 4 | 1275 ± 7.8 | 887.97 ± 4 | 883.7 ± 4 | 879.42 ± 4 | –
6 | OCc1ccccc1 [benzenemethanol] | 1534.5 ± 9.3 | 1041.05 ± 4 | 1037.15 ± 4 | 1496 ± 9.1 | 1033.32 ± 4 | 1029.46 ± 4 | 1025.59 ± 4 | –
7 | OCc1ccccc1 [benzenemethanol] + CCCCOCCO | – | – | – | – | – | – | – | speed of sound ([1]; 298.15 K, x1 = 1): 1534.5 ± 9.3 m/s; mass density ([1]; 298.15 K, x1 = 1): 1041.05 ± 4 kg/m3; mass density ([1]; 303.15 K, x1 = 1): 1037.15 ± 4 kg/m3; speed of sound ([1]; 308.15 K, x1 = 1): 1496 ± 9.1 m/s; mass density ([1]; 308.15 K, x1 = 1): 1033.32 ± 4 kg/m3; mass density ([1]; 313.15 K, x1 = 1): 1029.46 ± 4 kg/m3; mass density ([1]; 318.15 K, x1 = 1): 1025.59 ± 4 kg/m3

— the NIST ThermoML archive (doi:10.1016/j.jct.2015.08.040)
